Values of other authors, collected in US20140044780A1, “Extended-Release Levetiracetam and Method of Preparation” (PharmTak, Inc., priority 2012, published 2014).

For `CC[C@@H](C(N)=O)N1CCCC1=O` (single isomer, unassigned) [Levetiracetam], which Solubility in water is on record?
The Solubility in water was 104 g/100 mL.
